We go through three compounds from patent US20130095189A1, “COMPOSITION AND METHOD OF PHYTONUTRIENTS FOR METABOLIC PROGRAMMING EFFECTS” (priority 2011, published 2013).

Common to all, as to type: cell-based, human
In experiment [1] the test system is NQO1. Description: NQO1 protein expression by immunoblotting in skin fibroblast cell models. The settings on record: 24 h. The method, then: (§1) Treated and control cells are washed twice with ice cold phosphate buffered saline (PBS) and then incubated for 30 min in the Nonidet P-40 (NP-40) buffer (20 mM Tris-HCl, pH 8, 150 mM NaCl, 10% glycerol, 1% NP-40) containing one tablet of complete mini-EDTA-free protease inhibitor cocktail (Roche) in 10 ml buffer. Cells are harvested by scraping and the homogenate is centrifuged at 13,684 g at 4° C. for 15 min. The supernatants are collected and frozen at −80° C. The protein concentrations are determined using Bradford reagent (Sigma) according to the manufacturer's instructions. 20 μg of protein lysate is resolved by 10% SDS-polyacrylamide gel and transferred onto polyvinylidenedifluoride membranes (Bio-Rad) with a semidry transfer cell (Trans-Blot; Bio-Rad). Membranes are blocked for 1 hour at room temperature or overnight at 4° C. with Marvel fat-free milk powder (5% w/v), Tween 20 (0.05%, v/v) in PBS. Proteins of interest are visualized by exposing membranes to primary antibodies in milk for 2 hours at room temperature. Dilutions of antibodies are rabbit polyclonal GSTA1, 1:2000, goat polyclonal NQO1 1:1000 and goat polyclonal UGT1A 1:1000. Following primary antibody incubation membranes are incubated with suitable HRP-conjugated secondary antibody and signals are detected using an enhanced chemiluminescence kit (GE Healthcare) according to manufacturer's instructions. β-actin level is determined as loading control and bands are visualized using Fujifilm LAS3000 Imager.

Experiment [2] relates to NQO1 mRNA. The experiment in a line: NQO1 mRNA expression by TaqMan real-time PCR in skin fibroblast cell models. The text has this:
(§2) Total cellular RNA is isolated using Genelute Mammalian Total RNA Kit (Sigma-Aldrich) according to the manufacturer's instructions. […] Standard curves are constructed with serial dilutions of control sample and analyzed using ABI software. Data are normalized against a house keeping gene, 18S ribosomal RNA. Gene expression is quantified by ^ΔΔCt method where fold of induction=2^-ΔΔ[…]., Analysis of relative gene expression data using real-time quantitative PCR and the 2(-Delta Delta C(T)) Method. Methods 2001. 25, 402-408).
In general terms: Real-time PCR tracks product formation cycle by cycle.

For experiment [3], the system named is GST (GSTA1). Description: GST protein expression by immunoblotting in skin fibroblast cell models. Conditions: 24 h. As for the experimental part:
as §1
In general terms: A western blot detects proteins with antibodies after separation by electrophoresis.

The test system of experiment [4] is UGT mRNA. Description: UGT mRNA expression by TaqMan real-time PCR in skin fibroblast cell models.
Description: as §2

For experiment [5], the system named is GST mRNA. The experiment in a line: GST mRNA expression by TaqMan real-time PCR in skin fibroblast cell models.
Description: as §2

Experiment [6] relates to UGT (UGT1A). Description: UGT protein expression by immunoblotting in skin fibroblast cell models. The settings on record: 24 h. As for the experimental part:
as §1

The mark [7] stands for this setting: 1 month old cell model, 5, 10, 20 μM.
Setting [8] is: 1 month old cell model, control=1.
Setting [9] is: cell model, all concentrations tested.
[10] abbreviates: adult cell model, highest concentration (20 μM), control=1.

“Also recorded” adds a separate entry of the source.

With `O=c1c(O)c(-c2ccc(O)c(O)c2)oc2cc(O)cc(O)c12` [quercetin], in experiment [1] (adult cell model, higher dose), the “NQO1 protein expression (immunoblot, ratio to beta-actin)” value is given as “significant upregulation”. Besides, the “NQO1 mRNA expression relative to control” value is “significantly increased” in experiment [2] (setting [7]) and “do not demonstrate any significant changes” in experiment [2] (setting [9]). Further, the “upregulation of NQO1 mRNA compared to control” value in experiment [2] (setting [8]) is 7.2 fold. The “GST protein expression (immunoblot, ratio to beta-actin)” value in experiment [3] (adult cell model, 5, 10, 20 μM) is listed as “increases”. In addition, the “UGT mRNA expression relative to control” value in experiment [4] (adult cell model, 5, 10, 20 μM) is “significant dose-dependent increase”; in experiment [4] (setting [9]), “do not demonstrate any significant changes”. In addition, the “upregulation of UGT mRNA” value in experiment [4] (setting [10]) is 5.5 fold. Moreover, the “GST mRNA expression relative to control” value in experiment [5] (setting [7]) is listed as “significantly increased”; in experiment [5] (adult cell model, 5, 10, 20 μM) it was “significant dose-dependent increase”; in experiment [5] (setting [9]), “do not demonstrate any significant changes”. For the same compound, in experiment [5] (setting [8]), the “upregulation of GST mRNA compared to control” value is 3.9 fold. The “upregulation of GST mRNA” value in experiment [5] (setting [10]) amounted to 7.4 fold.

With `C[S+]([O-])CCCCN=C=S` (stereo not drawn) [sulforaphane, 4-methylsulfinylbutyl isothiocyanate], the “UGT protein expression (immunoblot, ratio to beta-actin)” value is reported as “significant induction” in experiment [6] (setting [7]); “affected” in experiment [6] (adult cell model, 5, 10, 20 μM); “significantly upregulated” in experiment [6] (cell model, higher doses). Besides, the “NQO1 protein expression (immunoblot, ratio to beta-actin)” value in experiment [1] (adult cell model, 5, 10, 20 μM) is recorded as “significant upregulation”; in experiment [1] (cell model, higher doses), “significantly upregulated”. The “NQO1 mRNA expression relative to control” value in experiment [2] (adult cell model, 5, 10, 20 μM) was “significant increase”; in experiment [2] (infant cell models) it was “significant increases”. The “increase in NQO1 mRNA compared to control” value in experiment [2] (infant cell models, control=1) is given as 6-35 fold. Also, in experiment [3] (cell model, higher doses), the “GST protein expression (immunoblot, ratio to beta-actin)” value is recorded as “significantly upregulated”. Besides, the “UGT mRNA expression relative to control” value in experiment [4] (adult cell model, 5, 10, 20 μM) was “significant increase”. Further, the “GST mRNA expression relative to control” value in experiment [5] (adult cell model, 5, 10, 20 μM) was “significant increase”; in experiment [5] (infant cell models), “significantly increased; also recorded: significant increases”.

For the compound catechin, in experiment [6] (cell model, higher doses), the “UGT protein expression (immunoblot, ratio to beta-actin)” value was “significantly upregulated”. Besides, the “NQO1 protein expression (immunoblot, ratio to beta-actin)” value was “significant upregulation” in experiment [1] (adult cell model, higher dose) and “significantly upregulated” in experiment [1] (cell model, higher doses). Also, the “NQO1 mRNA expression relative to control” value in experiment [2] (setting [7]) is given as “unaffected”; in experiment [2] (adult cell model, 5, 10, 20 μM), “dose-response upregulation”; in experiment [2] (infant cell models), “significant increases”. Also, the “increase in NQO1 mRNA expression” value in experiment [2] (cell model, control=1) was 4.5 fold. The “GST protein expression (immunoblot, ratio to beta-actin)” value in experiment [3] (adult cell model, 5, 10, 20 μM) is reported as “increases”; in experiment [3] (cell model, higher doses), “significantly upregulated”. For the same compound, the “UGT mRNA expression relative to control” value in experiment [4] (setting [7]) is “unaffected”; in experiment [4] (adult cell model, 5, 10, 20 μM), “an increase”. Moreover, in experiment [5] (setting [8]), the “upregulation of GST mRNA compared to control” value stood at 3.7 fold. For the same compound, the “GST mRNA expression relative to control” value is on record as “dose-response upregulation” in experiment [5] (adult cell model, 5, 10, 20 μM) and “significant increases” in experiment [5] (infant cell models).
